Source: patent US20250179024A1, “AMYLOID AND ASSOCIATED PATHOLOGY MODULATORS AND METHODS THEREOF” (Jawaharlal Nehru Centre for Advanced Scientific Research, priority 2022, published 2025)

How the values were obtained:
Type in all cases: cell-based
SH-SY5Y cells [1] = assay: Mitochondrial ROS measurement, MitoSOX; conditions: Aβ 40 μM, 8 h, Aβ alone 1.76 fold
Method: For quantifying mitochondrial ROS levels, SH-SY5Y cells were seeded into 96 well plates and incubated. After 24 h cells were treated with Aβ (20 μM) alone and with two different concentrations of NMIs (M3) (20 and 50 μM) for 8 h and stained with MitoSox Red (5 μM) in PBS for 15 min followed by a wash with PBS thrice. Then quickly fluorescence was measured (λex=510 nm and λem=580 nm) by Spectramax multi-well plate reader in well scan mode (>80 points, with 6 flashes per read). The relative fluorescence was used to assess ROS levels with respect to control. For ROS imaging, cells were seeded onto glass bottom dishes and incubated for 24 h. Cells were treated with Aβ (20 μM) and with NMIs (M3) (50 μM) in low serum media for 8 h. Then the cells were washed with PBS and stained with MitoSOX (5 μM) prepared in PBS and incubated. After 15 min, wash thrice with PBS and imaged in live cell set up in rhodamine channel using 63× oil immersion using Leica DMi8 fluorescence microscope.
Changes in MMP were visualized by treating the cells with Aβ (20 μM) alone and with M3 (50 μM) for 18 h followed by staining with MitoOrange. […] The ability of M3 to modulate Aβ-induced ROS levels in mitochondria was evaluated by the MitoSOX probe. The cells were treated with Aβ (40 μM) alone and with two concentrations of M3 for 8 h followed by treatment with MitoSOX to measure the relative ROS levels. […]

SH-SY5Y cells [2] = assay: Imaging of mitochondrial structural changes, Mito-TG; conditions: Aβ 20 μM, 18 h, Mito-TG staining
Method: The effect of NMIs (M3) on Aβ induced structural damage to mitochondria was assessed and Mito-TG probe was used for imaging mitochondria. SH-SY5Y cells were seeded onto confocal dishes and incubated for 24 h. Then cells were treated with Aβ (20 μM) alone and with M3 (50 μM) and incubated for […]. Followed by PBS washing, and stained with Mito-TG (250 nM) for 20 min. Cells were washed thrice with dPBS and imaged in live cell set up in rhodamine channel using 63× oil immersion using Leica DMi8 fluorescence microscope.
Aβ-associated functional abnormalities induced structural defects in mitochondria. The effect of M3 to prevent structural damage was assessed by staining the cells with Mito-TG, a mitochondrial probe. The cells were treated with Aβ (20 μM) alone and with M3 for 18 h, followed by Mito-TG staining and fluorescence microscopic imaging to visualize the structural changes. The Aβ treatment deformed mitochondria with fragmented morphology in comparison to the long tubular structure of healthy cells (FIG. 14C). […] Collectively, these structural and functional studies of mitochondria confirmed that M3 is a potential modulator of Aβ-induced toxicity to protect mitochondrial damage.

SH-SY5Y cells [3] = assay: Apoptosis assay by nuclear staining and morphology; conditions: Aβ 10 μM, compound 20 µM, 24 h
Method: The apoptosis induced by Aβ and rescue by NMIs (M3) was assessed through nuclear staining and morphology analysis. Apoptosis induces DNA damage and morphological change in the nucleus. Based on the nuclear features the extent of apoptosis was assessed as percentage apoptotic cells. SH-SY5Y cells were cultured and treated with Aβ (10 μM) and with NMIs (M3) (20 μM) to quantify the apoptosis and rescue by NMIs (M3). After 24 h the cells were washed with PBS and fixed with 4% paraformaldehyde and then with PBS for 5 min thrice and the nucleus was stained with DAPI (1 μM) for 10 min, washed thrice with PBS and imaged using fluorescence microscope to visualize the nuclear morphology. […] Total of more than 300 cells were counted to calculated the percentage of apoptosis.
Modulation of apoptosis by M3 was quantified by apoptosis assay through nuclear staining and morphological analysis. Apoptotic signals induced nuclear DNA damage show abnormal nuclear features, which has been used to evaluate and quantify the extent of apoptosis. Neuronal cells treated with Aβ (10 μM) alone and with […] for 24 h were stained for the nucleus and analysed for apoptotic morphological features.

NF-kβ = assay: Western blot of NF-kβ in C6 microglia; conditions: LPS 500 ng/mL, Aβ 5 μM, compound 10 μM; Aβ alone 2.62 fold
Method: Western blot analysis was performed to analyse the changes in the protein levels from cell lysates. SH-SY5Y and C6 cells were cultured to 80% confluence in T25 flask, trypsinised and seed into 12 well plate. The cells were cultured for 30 h and then treated with LPS (500 ng/mL) in low serum media for 6 h. Then the cells were treated with Aβ42 (5 μM) alone and with NMIs (M3) (10 μM) for 18 h. The cells were harvested by trypsinisation and the protein was extracted in RIPA lysis buffer with protease inhibitor cocktail (1×). Briefly cells were washed with dPBS and lysed in […] of RIPA lysis buffer with gentle shaking in 4° C. for 30 min. Then the cells were centrifuged at 16000 g for 20 min and the supernatant containing protein was collected and quantified by Bradford assay. The protein lysate was subjected to SDS-PAGE (12% resolving gel) and transferred to PVDF membrane. The blot paper was blocked with 5% skim milk powder for 1 h at room temperature and then washed thrice with TBST. […] All the western blots were quantified by using ImageJ, data was plotted and analysed by GraphPad prism5.
NF-kβ is a tangible drug target for neuroinflammation and AD. […] C6 microglia were primed with LPS (500 ng/mL) followed by Aβ (5 μM) treatment to induce inflammation, which was monitored by the change in NF-kβ levels in western blot analysis (FIG. 16F).

What does the source list for O=C1c2cccc3c(N(Cc4ccccn4)Cc4ccccn4)ccc(c23)C(=O)N1CCc1ccc(O)c(O)c1 [M3, 6-(bis(pyridin-2-ylmethyl)amino)-2-(3,4-dihydroxyphenethyl)-1H-benzo[de]isoquinoline-1,3(2H)-dione]?
mitochondrial ROS levels compared to control cells (SH-SY5Y cells [1]; compound 20 μM): 1.6 fold; mitochondrial ROS levels compared to control cells (SH-SY5Y cells [1]; compound 50 μM): 1.25 fold; mitochondrial structure (SH-SY5Y cells [2]): protected normal long tubular structures; nuclear morphology (SH-SY5Y cells [3]; DAPI): normal nuclear structures; apoptosis of neuronal cells (SH-SY5Y cells [3]; Aβ alone ~35%, control ~8.5%): 22.5%; NF-kβ level compared to control (NF-kβ): 1.78 fold
